ChEMBL document CHEMBL5665443, “Enzyme Inhibitor Single Concentration assay results for EUbOPEN Chemogenomics Library” (2024)

Key:
[1] = biological target: Methyl-CpG-binding domain protein 4 (Homo sapiens) (UniProt O95243); details: Hit No;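 note: MBD4 activity read as fluorescence at 594 nm from cleavage and release of a quenched duplex DNA oligonucleotide, with APE1 coupled to incise the strand and raise turnover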
Description: Inhibition of MBD4 by quantifying inhibition of MBD4-mediated cleavage and dissociation of quenched duplex DNA oligonucleotides, measured as fluorescence at 594 nm. To generate a functional strand incision and increase turn-over this assay is coupled to APE1.

[2] = biological target: Endonuclease 8-like 1 (Homo sapiens) (UniProt Q96FI4); details: Hit No;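 note: fluorescence at 594 nm from quenched duplex DNA oligonucleotides released by NEIL1 cleavage and strand separation, reported as reduction of this enzyme activity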
Description: Inhibition of NEIL1 by quantifying inhibition of NEIL1-mediated cleavage and dissociation of quenched duplex DNA oligonucleotides, measured as fluorescence at 594 nm.

[3] = biological target: N-glycosylase/DNA lyase (Homo sapiens) (UniProt O15527); details: Hit No;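 note: OGG1 cleavage of a quenched duplex DNA oligonucleotide, coupled to APE1 for strand incision, read as fluorescence at 594 nm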
Description: Inhibition of OGG1 by quantifying inhibition of OGG1-mediated cleavage and dissociation of quenched duplex DNA oligonucleotides, measured as fluorescence at 594 nm. To generate a functional strand incision and increase turn-over this assay is coupled to APE1.

[4] = biological target: T1, Single-strand selective monofunctional uracil DNA glycosylase (Homo sapiens) (UniProt Q53HV7); details: Hit No;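 note: enzymatic SMUG1 assay coupled with APE1, reading fluorescence at 594 nm released when a quenched double-stranded DNA oligonucleotide substrate is cleaved and separated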
T1 sequence (whole entry): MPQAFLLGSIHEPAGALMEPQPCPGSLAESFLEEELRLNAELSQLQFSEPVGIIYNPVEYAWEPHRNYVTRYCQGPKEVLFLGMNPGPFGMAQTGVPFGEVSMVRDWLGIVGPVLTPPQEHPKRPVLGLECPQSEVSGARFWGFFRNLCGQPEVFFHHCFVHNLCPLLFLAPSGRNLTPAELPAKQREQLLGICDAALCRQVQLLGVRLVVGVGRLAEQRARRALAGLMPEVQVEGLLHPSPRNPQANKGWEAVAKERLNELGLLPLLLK
Description: Inhibition of SMUG1 by quantifying inhibition of SMUG1-mediated cleavage and dissociation of quenched duplex DNA oligonucleotides, measured as fluorescence at 594 nm. To generate a functional strand incision and increase turn-over this assay is coupled to APE1.

[5] = biological target: G/T mismatch-specific thymine DNA glycosylase (Homo sapiens) (UniProt Q13569); details: Hit No;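 note: human TDG cleavage of quenched duplex DNA oligonucleotides coupled to APE1, strand release read as fluorescence at 594 nm, inhibition of TDG activity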
Description: Inhibition of TDG by quantifying inhibition of TDG-mediated cleavage and dissociation of quenched duplex DNA oligonucleotides, measured as fluorescence at 594 nm. To generate a functional strand incision and increase turn-over this assay is coupled to APE1.

[6] = biological target: Uracil-DNA glycosylase (Homo sapiens) (UniProt P13051); details: Hit No;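 note: UNG excision on a quenched double-stranded DNA oligo probe, with APE1 added for strand incision and turnover, read as fluorescence at 594 nm as strands separate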
Description: Inhibition of UNG by quantifying inhibition of UNG-mediated cleavage and dissociation of quenched duplex DNA oligonucleotides, measured as fluorescence at 594 nm. To generate a functional strand incision and increase turn-over this assay is coupled to APE1.

[7] = biological target: T2, Endonuclease 8-like 2 (Homo sapiens) (UniProt Q969S2); details: Hit No;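 note: fluorescence at 594 nm reports NEIL2 cutting and release of a quenched double-stranded DNA oligo substrate, reduced signal read as inhibition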
T2 sequence (whole entry): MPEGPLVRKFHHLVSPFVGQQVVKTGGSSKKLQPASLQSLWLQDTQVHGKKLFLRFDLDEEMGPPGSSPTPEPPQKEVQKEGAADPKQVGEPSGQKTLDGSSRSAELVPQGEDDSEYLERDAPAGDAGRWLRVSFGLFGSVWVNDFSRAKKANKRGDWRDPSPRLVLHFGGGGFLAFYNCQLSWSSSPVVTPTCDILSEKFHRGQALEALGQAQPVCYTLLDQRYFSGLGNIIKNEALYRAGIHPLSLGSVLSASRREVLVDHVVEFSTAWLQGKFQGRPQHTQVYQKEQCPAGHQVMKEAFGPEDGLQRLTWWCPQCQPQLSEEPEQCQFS
Description: Inhibition of NEIL2 by quantifying inhibition of NEIL2-mediated cleavage and dissociation of quenched duplex DNA oligonucleotides, measured as fluorescence at 594 nm.

[8] = biological target: T3, Endonuclease III-like protein 1 (Homo sapiens) (UniProt P78549); details: Compound Concentration 10.0 uM, Hit No;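 note: enzyme assay tracking NTHL1 cutting and release of a quenched double-stranded DNA oligo substrate, read as fluorescence at 594 nm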
T3 sequence (whole entry): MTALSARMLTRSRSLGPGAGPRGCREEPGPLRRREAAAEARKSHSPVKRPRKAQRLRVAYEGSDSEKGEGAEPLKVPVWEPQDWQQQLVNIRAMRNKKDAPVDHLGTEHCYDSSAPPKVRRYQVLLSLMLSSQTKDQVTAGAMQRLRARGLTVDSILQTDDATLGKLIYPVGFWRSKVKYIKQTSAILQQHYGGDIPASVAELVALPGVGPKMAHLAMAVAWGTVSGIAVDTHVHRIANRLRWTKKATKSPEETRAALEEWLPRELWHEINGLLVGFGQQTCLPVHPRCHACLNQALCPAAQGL
Description: Inhibition of NTHL1 by quantifying inhibition of NTHL1-mediated cleavage and dissociation of quenched duplex DNA oligonucleotides, measured as fluorescence at 594 nm.

G/T mismatch-specific thymine DNA glycosylase (Homo sapiens), sequence (Q13569 whole entry): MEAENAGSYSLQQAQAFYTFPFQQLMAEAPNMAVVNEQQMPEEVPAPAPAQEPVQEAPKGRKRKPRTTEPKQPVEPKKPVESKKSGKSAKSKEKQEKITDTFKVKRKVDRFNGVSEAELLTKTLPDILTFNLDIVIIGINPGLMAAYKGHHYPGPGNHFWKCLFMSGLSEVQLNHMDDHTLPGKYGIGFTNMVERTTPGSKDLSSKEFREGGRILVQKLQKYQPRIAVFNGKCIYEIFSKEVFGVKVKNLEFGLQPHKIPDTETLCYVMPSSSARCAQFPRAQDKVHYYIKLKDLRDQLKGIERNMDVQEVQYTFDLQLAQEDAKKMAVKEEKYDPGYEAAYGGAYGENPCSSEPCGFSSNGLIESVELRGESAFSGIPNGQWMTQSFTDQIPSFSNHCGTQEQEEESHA
Methyl-CpG-binding domain protein 4 (Homo sapiens), sequence (O95243 whole entry, the tested form may be a part): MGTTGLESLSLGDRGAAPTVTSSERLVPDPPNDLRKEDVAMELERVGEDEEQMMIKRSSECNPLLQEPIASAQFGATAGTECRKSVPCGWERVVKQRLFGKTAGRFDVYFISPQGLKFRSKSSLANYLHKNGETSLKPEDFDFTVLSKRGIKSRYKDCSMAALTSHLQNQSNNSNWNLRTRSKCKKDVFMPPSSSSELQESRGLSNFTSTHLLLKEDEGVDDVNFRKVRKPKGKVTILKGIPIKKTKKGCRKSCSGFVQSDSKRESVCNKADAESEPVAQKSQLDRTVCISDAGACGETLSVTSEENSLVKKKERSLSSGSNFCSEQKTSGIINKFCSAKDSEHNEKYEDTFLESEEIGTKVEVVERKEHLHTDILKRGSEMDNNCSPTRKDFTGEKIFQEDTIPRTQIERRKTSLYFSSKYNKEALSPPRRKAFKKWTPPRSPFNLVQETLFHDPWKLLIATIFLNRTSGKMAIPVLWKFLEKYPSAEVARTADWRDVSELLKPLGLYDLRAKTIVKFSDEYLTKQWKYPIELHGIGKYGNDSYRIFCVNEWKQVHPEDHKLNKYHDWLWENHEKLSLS
Uracil-DNA glycosylase (Homo sapiens), sequence (P13051 whole entry): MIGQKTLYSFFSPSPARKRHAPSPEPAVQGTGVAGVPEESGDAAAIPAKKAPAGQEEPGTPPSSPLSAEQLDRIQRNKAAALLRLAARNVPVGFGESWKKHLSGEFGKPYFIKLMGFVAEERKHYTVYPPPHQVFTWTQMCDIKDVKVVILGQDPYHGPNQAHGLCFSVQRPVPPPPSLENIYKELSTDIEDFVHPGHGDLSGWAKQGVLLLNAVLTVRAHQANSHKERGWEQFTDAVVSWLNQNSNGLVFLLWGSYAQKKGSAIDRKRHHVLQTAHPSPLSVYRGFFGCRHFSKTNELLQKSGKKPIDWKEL
Endonuclease 8-like 1 (Homo sapiens), sequence (Q96FI4 whole entry): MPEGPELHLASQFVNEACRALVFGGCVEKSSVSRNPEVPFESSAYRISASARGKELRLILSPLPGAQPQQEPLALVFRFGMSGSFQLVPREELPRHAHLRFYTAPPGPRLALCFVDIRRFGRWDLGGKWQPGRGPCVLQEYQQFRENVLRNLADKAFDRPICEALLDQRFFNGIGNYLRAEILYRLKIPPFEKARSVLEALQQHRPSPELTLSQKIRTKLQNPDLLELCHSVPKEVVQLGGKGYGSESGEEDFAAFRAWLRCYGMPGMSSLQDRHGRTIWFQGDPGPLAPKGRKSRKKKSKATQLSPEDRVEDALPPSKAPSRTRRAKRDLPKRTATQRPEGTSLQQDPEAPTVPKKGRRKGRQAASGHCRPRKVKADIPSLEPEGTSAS
N-glycosylase/DNA lyase (Homo sapiens), sequence (O15527 whole entry): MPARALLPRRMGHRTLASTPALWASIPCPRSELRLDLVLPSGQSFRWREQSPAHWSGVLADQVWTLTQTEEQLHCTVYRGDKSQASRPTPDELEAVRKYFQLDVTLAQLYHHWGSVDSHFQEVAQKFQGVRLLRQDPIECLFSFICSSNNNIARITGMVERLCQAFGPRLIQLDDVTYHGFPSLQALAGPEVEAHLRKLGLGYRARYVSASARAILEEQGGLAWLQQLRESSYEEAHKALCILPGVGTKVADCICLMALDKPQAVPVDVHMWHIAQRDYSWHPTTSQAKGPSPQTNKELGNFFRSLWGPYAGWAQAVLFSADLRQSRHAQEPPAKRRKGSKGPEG

SMILES	inhibition ([1]; Compound Concentration 10.0 uM)	inhibition ([2]; Compound Concentration 10.0 uM)	inhibition ([3]; Compound Concentration 10.0 uM)	inhibition ([4]; Compound Concentration 10.0 uM)	inhibition ([5]; Compound Concentration 10.0 uM)	inhibition ([6]; Compound Concentration 10.0 uM)	inhibition ([7]; Compound Concentration 10.0 uM)	inhibition [8]	inhibition ([1]; Compound Concentration 1.0 uM)	inhibition ([2]; Compound Concentration 1.0 uM)	inhibition ([7]; Compound Concentration 1.0 uM)	inhibition ([3]; Compound Concentration 1.0 uM)	inhibition ([4]; Compound Concentration 1.0 uM)	inhibition ([5]; Compound Concentration 1.0 uM)	inhibition ([6]; Compound Concentration 1.0 uM)
Nc1ccc(C(=O)Nc2cccc(-c3nc(N4CCOCC4)c4oc5ncccc5c4n3)c2)cn1	-6.46%	-5.94%	23%	9.56%	7.37%	2.33%	–	–	–	–	–	–	–	–	–
CCCCCCOc1cc2n(c(=O)n1)CCc1cc(OC)c(OC)cc1-2	–	1.64%	–	–	–	–	-5.45%	-4.39%	–	–	–	–	–	–	–
C[C@@H]1CCNC(=O)c2cc3ccc(C(=O)Nc4nc5ccccc5n4CCCN(C)C)cc3n21	–	–	–	–	–	–	–	–	-2.92%	3.44%	-5.96%	5.43%	22.7%	37.8%	1.38%
Cn1c(-c2csc(C3CCN(CC4=NC5N=CC=CC5N4)CC3)n2)nc2ccccc21 (stereo unspecified)	-3.01%	-1.5%	-1.15%	–	20.6%	–	-5.34%	–	–	–	–	–	–	–	–
Cc1noc([C@H]2C[C@@H](c3ccc(C(F)(F)F)cc3)CN(C(=O)N3CCS(=O)(=O)C3)C2)n1	42.2%	–	1.56%	5.39%	53.6%	-0.51%	-5.59%	–	–	–	–	–	–	–	–
C[C@@H](c1cccc(C#N)c1)n1cc(Cl)cc(C(N)=O)c1=N	67%	-4.99%	1.26%	9.26%	46.5%	3.37%	12%	–	–	–	–	–	–	–	–
COc1cccc(OC)c1-c1cc(C(=O)NC2(C(=O)O)C3CC4CC(C3)CC2C4)nn1-c1ccc(C(=O)N(C)CCCN(C)C)cc1C(C)C (stereo unspecified)	10.5%	2.02%	3.59%	–	18.3%	-7.25%	7.25%	–	–	–	–	–	–	–	–
CCC[C@H]1CNCc2c1[nH]c(=O)c(C#N)c2N1CCC2(CC1)CC2	58.5%	9.71%	2.34%	6.33%	100%	0.94%	-0.999%	–	–	–	–	–	–	–	–
N=C(N)SCCc1c[nH]cn1	11.4%	-8.06%	-6.9%	-7.4%	-1.52%	–	–	–	–	–	–	–	–	–	–
Clc1ccc(-c2nc3sccn3c2/C=N/OCc2ccc(Cl)c(Cl)c2)cc1	15.6%	1.22%	1.07%	12%	76.8%	-2.04%	2.57%	–	–	–	–	–	–	–	–
COc1cc(N2CCC(O)CC2)ccc1Nc1cc(Nc2ccccc2S(=O)(=O)C(C)C)c2cc[nH]c2n1	13.6%	–	21.1%	4.55%	52.6%	3.96%	–	–	–	–	–	–	–	–	–
Cc1nc(-c2ccc(-c3ccc(C(=O)N4CCc5cc6c(cc54)C4(CCN(C)CC4)CO6)cc3)c(C)c2)no1	2.3%	-7.62%	–	–	-5.26%	–	-3.48%	–	–	–	–	–	–	–	–
Cc1ccc2[nH]c(CNCCCc3ccncc3)cc(=O)c2c1	56.8%	-2.56%	5.93%	7.47%	35.6%	-0.701%	-5.59%	–	–	–	–	–	–	–	–
O=C(NCCN1CCOCC1)c1ccc2c(c1)C(=O)c1ccc(Nc3ccc(F)c(NC(=O)c4ccccc4)c3)cc1CC2	–	-5.6%	–	–	–	–	-4.66%	0.366%	–	–	–	–	–	–	–
CS(=O)(=O)NCC[C@H](NC(=O)c1cncc2c1cnn2-c1ccc(F)cc1)c1ccnc(S(C)(=O)=O)c1	–	–	–	–	–	–	–	–	64.7%	-4.23%	0.0213%	-0.705%	6.65%	50.4%	-0.0979%
NC(=O)[C@@H]1CCCN1C(=O)[C@H](Cc1c[nH]cn1)NC(=O)[C@@H]1CCC(=O)N1	-3.57%	-9.1%	-2.75%	-2.65%	10.8%	–	12.7%	–	–	–	–	–	–	–	–
CCNC(=O)c1cc2c(N3CCOCC3C)ccnc2[nH]1 (stereo unspecified)	52.5%	–	-6.36%	15.1%	58.1%	-3.94%	-7.12%	–	–	–	–	–	–	–	–

SMILES	inhibition ([1]; Compound Concentration 10.0 uM)	inhibition ([2]; Compound Concentration 10.0 uM)	inhibition ([3]; Compound Concentration 10.0 uM)	inhibition ([4]; Compound Concentration 10.0 uM)	inhibition ([5]; Compound Concentration 10.0 uM)	inhibition ([6]; Compound Concentration 10.0 uM)	inhibition ([7]; Compound Concentration 10.0 uM)	inhibition [8]	inhibition ([1]; Compound Concentration 1.0 uM)	inhibition ([2]; Compound Concentration 1.0 uM)	inhibition ([7]; Compound Concentration 1.0 uM)	inhibition ([3]; Compound Concentration 1.0 uM)	inhibition ([4]; Compound Concentration 1.0 uM)	inhibition ([5]; Compound Concentration 1.0 uM)	inhibition ([6]; Compound Concentration 1.0 uM)
Cc1c(Oc2ccc(F)cc2)c(OC(C)C)nn1-c1ccc(C2CC2)cn1	–	–	–	–	–	–	–	–	59%	-5.44%	1.55%	10.1%	8.77%	52%	0.0471%
CC(C=CC1=C(C)CCCC1(C)C)=CC=CC(C)=CC(=O)O	57.7%	–	83.6%	8.2%	96.3%	-0.014%	-4.83%	–	–	–	–	–	–	–	–
COc1cccc(CNC(=O)c2nc3scc(COCc4ccc(C(=O)O)cc4)c3c(=O)[nH]2)c1	–	–	–	–	–	–	–	–	56%	-1.5%	-2.53%	12.5%	18.6%	99.5%	-0.0979%
COc1ccc2cc(OCC3(C(=O)O)CN(C(=O)c4ccc(F)cc4)C3)ccc2c1	–	–	–	–	–	–	–	–	76.6%	0.467%	-2.53%	-4.88%	4.5%	50.2%	-0.296%
CCn1c(CNC(=O)c2nc(Cl)cnc2N)[n+](CC)c2ccc(C(=O)N(C)CCN(C)C)cc21	53.4%	-5.14%	14.2%	12.7%	96.8%	2.92%	–	–	–	–	–	–	–	–	–
CN1C(=O)c2sccc2N(C)c2nc(Nc3ccc(S(N)(=O)=O)cc3)ncc21	–	–	–	–	–	–	–	–	27.4%	-7.66%	-6.76%	5.53%	9.9%	40.8%	-4.58%
O=C(c1ccc(F)c(F)c1Nc1ccc(I)cc1F)N1CC(O)([C@@H]2CCCCN2)C1	21.9%	–	–	13.1%	45%	7.28%	–	–	–	–	–	–	–	–	–
Cc1ccc(NC(=O)Nc2cc(C(F)(F)F)ccc2F)cc1Nc1ccc2c(c1)NC(=O)/C2=C\c1ccc[nH]1	–	–	–	–	–	–	–	–	-5.4%	-7.79%	–	–	–	24.1%	-3.3%
O=C(Nc1ccc(Oc2ccc(F)cc2)cc1)N1CCc2ncccc2[C@H]1c1ccc(F)cc1	–	–	–	–	–	–	–	–	71%	-9.68%	-5.34%	-3.07%	3.93%	48.4%	-3.31%
C[C@@H]1CN(Cc2ccc(F)cc2)CCN1C(=O)COc1ccc(Cl)cc1NC(N)=O	-0.315%	8.25%	–	-3.18%	-7.21%	–	1.76%	–	–	–	–	–	–	–	–
O=C(Nc1cnc(Oc2ccc(F)cc2)nc1)N1CCc2ncccc2[C@@H]1c1ccc(F)cc1	70.5%	–	-7.44%	6.94%	49.8%	-4.47%	-3.04%	–	–	–	–	–	–	–	–
CCC(F)(F)c1cc(N2CCC(S(C)(=O)=O)CC2)nc2sc(C(N)=O)c(N)c12	38.2%	-3.46%	-8.21%	8.86%	39.1%	3.95%	-1.2%	–	–	–	–	–	–	–	–
CC[C@H](CC(=O)O)n1c(=O)c2ncccc2n(Cc2cn(C)c3cc(C)cc(C)c23)c1=O	56.1%	0.164%	0.279%	-8.88%	46.4%	0.131%	-5.34%	–	–	–	–	–	–	–	–
Cc1cc2c(-c3ccco3)cnc(N[C@H]3CCN(C)C[C@@H]3C(=O)NC3CCCCC3)c2[nH]c1=O	29.8%	0.316%	–	–	22.3%	-1.62%	-2.27%	–	–	–	–	–	–	–	–
Cn1ncc2c(-c3c(-c4ccc(F)cn4)nn4c3COC(C)(C)C4)ccnc21	50.1%	–	-1.93%	3.56%	99.5%	1.59%	-5.34%	–	–	–	–	–	–	–	–
CN1CCN(c2ccc(/C=C(\C#N)c3ccccc3Br)cc2)CC1	55.3%	-2.11%	25.6%	7.83%	42.1%	4.48%	-0.489%	–	–	–	–	–	–	–	–
CC(=O)C1=C(C)N(c2cccc(C(F)(F)F)c2)C(=O)N[C@@H]1c1ccc(C#N)nc1	51.4%	–	-1.15%	-3.19%	45.6%	2.25%	3.85%	–	–	–	–	–	–	–	–
